Data from PMC10778976, “BAY-3827 and SBI-0206965: Potent AMPK Inhibitors That Paradoxically Increase Thr172 Phosphorylation” (International Journal of Molecular Sciences, 2023).

Experiments:
human α2β2γ1 complex [1] = biological target: T1, human α2β2γ1 complex (Homo sapiens, UniProt O43741+P54619+P54646); assay: Cell-free kinase assay of bacterially expressed human α2β2γ1 complex phosphorylated on Thr172 by CaMKK2; type: biochemical; settings: ATP 200 µM; read-out: IC50, inhibition of human α2β2γ1 complex
T1 construct: (His)6
T1 sequence (P54646 whole entry): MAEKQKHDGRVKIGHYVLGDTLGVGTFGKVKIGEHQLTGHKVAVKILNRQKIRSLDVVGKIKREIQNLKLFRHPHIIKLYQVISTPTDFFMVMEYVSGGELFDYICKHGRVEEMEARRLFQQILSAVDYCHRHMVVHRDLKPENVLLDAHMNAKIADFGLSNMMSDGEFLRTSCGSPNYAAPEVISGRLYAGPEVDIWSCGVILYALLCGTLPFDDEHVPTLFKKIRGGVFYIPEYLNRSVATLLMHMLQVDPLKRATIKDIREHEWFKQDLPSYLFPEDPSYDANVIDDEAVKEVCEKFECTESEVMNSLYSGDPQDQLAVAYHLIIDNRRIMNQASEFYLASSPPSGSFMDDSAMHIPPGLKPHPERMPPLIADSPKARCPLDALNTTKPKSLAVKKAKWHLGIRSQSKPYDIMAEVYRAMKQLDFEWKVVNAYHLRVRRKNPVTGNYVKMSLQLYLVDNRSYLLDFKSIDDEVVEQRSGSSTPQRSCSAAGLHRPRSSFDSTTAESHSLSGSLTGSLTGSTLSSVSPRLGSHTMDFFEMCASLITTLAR
T1 sequence (O43741 whole entry partner): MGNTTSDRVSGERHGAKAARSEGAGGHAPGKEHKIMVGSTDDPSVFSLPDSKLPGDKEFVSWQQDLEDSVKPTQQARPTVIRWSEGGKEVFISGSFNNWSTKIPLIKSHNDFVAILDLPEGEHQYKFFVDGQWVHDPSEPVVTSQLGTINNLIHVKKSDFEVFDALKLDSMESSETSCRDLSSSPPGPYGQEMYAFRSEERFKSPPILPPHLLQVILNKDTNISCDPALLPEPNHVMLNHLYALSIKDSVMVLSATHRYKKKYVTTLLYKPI
T1 sequence (P54619 whole entry partner): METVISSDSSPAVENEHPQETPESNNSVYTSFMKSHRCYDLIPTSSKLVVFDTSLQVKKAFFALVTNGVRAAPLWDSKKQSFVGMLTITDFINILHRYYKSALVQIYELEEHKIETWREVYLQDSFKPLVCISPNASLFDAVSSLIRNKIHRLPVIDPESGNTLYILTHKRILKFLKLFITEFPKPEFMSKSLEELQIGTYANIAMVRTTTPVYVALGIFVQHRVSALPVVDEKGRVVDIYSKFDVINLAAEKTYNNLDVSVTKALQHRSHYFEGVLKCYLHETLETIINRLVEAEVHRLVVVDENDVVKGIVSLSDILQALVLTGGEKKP
Description: (§1) AMPK assays measured the transfer of radioactivity from labelled ATP to a peptide substrate, which was separated from unreacted ATP by binding to P81 paper. This assay was described previously, except that we used [γ-^33P]ATP rather than [γ-^32P]ATP. The peptide substrate was the AMARA peptide in all experiments other than one, which analyzed allosteric activation by AMP (Figure 2A), when, for technical reasons, the SAMS peptide was used instead. With purified preparations of AMPK, it was assayed in solution, but for assays in cell lysates (Figure 3D and Figure 4D), it was first immunoprecipitated using a mixture of anti-α1 and -α2 antibodies and assayed in resuspended immunoprecipitates. After the initial immunoprecipitation of lysate containing 80 µg of protein, the pellets were washed twice with 1 mL of high salt IP buffer (50 mM Tris-HCL, pH 7.4 at 4 °C, 1 M NaCl, 1 mM EDTA, 1 mM EGTA, 50 mM NaF, 5 mM Na pyrophosphate, 1 mM dithiothreitol, 0.1% (v/v) Triton X-100) and twice with 1 mL of low salt IP buffer (as above but only 150 mM NaCl), followed by a final wash in 1 mL of assay buffer (50 mM Na Hepes, pH7.4, 150 mM NaCl, 1 mM dithiothreitol, 0.02% (v/v) Brij-35). After each wash, the pellet was recovered via centrifugation (16,000× g, 3 min) and then resuspended. […]

purified rat liver AMPK = assay: Allosteric activation of rat liver AMPK by AMP with and without BAY-3827; type: biochemical; settings: BAY-3827 30 nM
Description: AMPK assays measured the transfer of radioactivity from labelled ATP to a peptide substrate, which was separated from unreacted ATP by binding to P81 paper. This assay was described previously, except that we used [γ-^33P]ATP rather than [γ-^32P]ATP. The peptide substrate was the AMARA peptide in all experiments other than one, which analyzed allosteric activation by AMP (Figure 2A), when, for technical reasons, the SAMS peptide was used instead. With purified preparations of AMPK, it was assayed in solution, but for assays in cell lysates (Figure 3D and Figure 4D), it was first immunoprecipitated using a mixture of anti-α1 and -α2 antibodies and assayed in resuspended immunoprecipitates. After the initial immunoprecipitation of lysate containing 80 µg of protein, the pellets were washed twice with 1 mL of high salt IP buffer (50 mM Tris-HCL, pH 7.4 at 4 °C, 1 M NaCl, 1 mM EDTA, 1 mM EGTA, 50 mM NaF, 5 mM Na pyrophosphate, 1 mM dithiothreitol, 0.1% (v/v) Triton X-100) and twice with 1 mL of low salt IP buffer (as above but only 150 mM NaCl), followed by a final wash in 1 mL of assay buffer (50 mM Na Hepes, pH7.4, 150 mM NaCl, 1 mM dithiothreitol, 0.02% (v/v) Brij-35). After each wash, the pellet was recovered via centrifugation (16,000× g, 3 min) and then resuspended. The final resuspended pellets from each biological replicate were divided into two aliquots (40 µg lysate protein) to provide technical replicates and assayed as above.

[2] = Pharmacokinetic study in mice, blood levels by LC:MS; type: in vivo, NOD-SCID mice; settings: 10 mg/kg oral gavage after 1-aminobenzotriazole 50 mg/kg
Description: All experiments with live animals were approved in advance by the Ethical Review Committee of the University of Dundee in accordance with the UK Animal (Scientific Procedures) Act 1986. Two female mice of the NOD-SCID strain were obtained from Charles River Laboratories, UK. The animals were maintained under a 12 h light/12 h dark cycle. The animals were allowed ad libitum access to food (RM1; Special Diet Services, UK) and water. Temperature and relative humidity were maintained between 20 and 24 °C and 45 and 65%, respectively. All animals received a minimum of 14 days acclimatization prior to the start of the study. 1-Aminobenzotriazole was dissolved on the day of dosing in Milli-Q ultrapure water at a concentration of 10 mg/mL and dosed via oral gavage at a dose level of 50 mg/kg. BAY-3827 was suspended in 0.5% hydroxypropylmethylcellulose (Methocel K15M Premium USP/EP; Colorcon) in water, at a concentration of 2 mg/mL. The BAY-3827 formulation was dosed via oral gavage at a dose level of 10 mg/kg, 30 min after the administration of 1-aminobenzotriazole. The animals were observed regularly after dose administration. […]
A Waters Acquity Performance Liquid Chromatography coupled to a Waters Xevo TQ-S tandem mass spectrometer was used for the quantification of BAY-3827, using donepezil hydrochloride as an internal standard. […]
Calibration samples, QC samples, blanks, double blanks, and study samples were extracted through protein precipitation. […] The resultant supernatant from the calibration samples, QCs, double blanks, and blanks (200 µL) and study samples (80 µL) was then transferred to HPLC glass vials containing Milli-Q water (100 µL or 40 µL, respectively) to reduce the solvent strength ready for UHPLC/MS analysis.
The sample concentrations were determined via a linear regression (weighting: 1/x) on the calibration samples using Waters TargetLynx application (v4.2). […] The lower limit of quantification (LLoQ) was determined as the analyte response with ≥three times the analyte response of the blanks (plasma with internal standard but not analyte). […]

[3] = design: method as in ref 32 = [32]; 32. Lemos C. Schulze A. Overview for BAY-3827, an Inhibitor of PRKAA1, RPS6KA1 Available online: https://www.sgc-ffm.uni-frankfurt.de/chemProbes#!specificprobeoverview/BAY-3827 (accessed on 14 Novembe); settings: rat hepatocytes; cited from earlier work
human α2β2γ1 complex [4] = biological target: T2, human α2β2γ1 complex (Homo sapiens, UniProt P54646); assay: Cell-free kinase assay of bacterially expressed human α2β2γ1 complex phosphorylated on Thr172 by CaMKK2; type: biochemical; settings: ATP 200 µM; read-out: IC50, inhibition of human α2β2γ1 complex
T2 construct: (His)6
T2 sequence (P54646 whole entry): as the sequence (P54646 whole entry) above
T2 sequence (O43741 whole entry partner): as the sequence (O43741 whole entry partner) above
T2 sequence (P54619 whole entry partner): as the sequence (P54619 whole entry partner) above
Description: as §1

[5] = design: method as in PMID 35802287; settings: cited from earlier work

IC50 (human α2β2γ1 complex [1])	fold increase of EC50 for AMP (purified rat liver AMPK)	blood concentration ([2]; after 4–8 h)	peak blood concentration (mean) ([2]; at 60 min)	concentration at 8 h ([2]; female, NOD-SCID, mouse, whole blood, after 8 h)	SMILES	basal activity (without AMP) (purified rat liver AMPK; control without inhibitor 135)	in vitro clearance (CL) [3]	oral bio-availability (Fmax) [3]	IC50 (human α2β2γ1 complex [4])	elimination half-life [5]	relative oral availability [5]
70 nM	5 fold	20 to 30 nM	90 nM and ≈ 90 nM	20 nM	CCc1ccccc1C(=O)Nc1n[nH]c2c(C)c(F)c(C3C(C#N)=C(C)N(C)C(C)=C3C#N)cc12 [BAY-3827]	46 nmol/min/mg	55 mL/min/kg	21%			
					CNC(=O)c1ccccc1Oc1nc(Nc2cc(OC)c(OC)c(OC)c2)ncc1Br [SBI-0206965]				206 nM	short	low
